Results published in patent US11085056B2, “Transfection complexes and methods of using the same” (MOLECULAR TRANSFER, INC., priority 2015, dated 2021).

How the values were obtained:
NL-1 iPS Cells = experiment: Transfection of NL-1 iPS cells with DOTMA/DOPE/peptide and eGFP plasmid, fluorescent plate reader; assay type: cell-based; conditions: DOTMA/DOPE 1:1 plus peptide with RRRRRRRRRRRR (SEQ ID NO: 109) at n terminus; EF1Alpha eGFP plasmid; 42 hours
C2C12 Cells = experiment: Transfection of C2C12 cells with DOTMA/DOPE/peptide and eGFP plasmid, fluorescent plate reader; assay type: cell-based, mouse; conditions: DOTMA/DOPE 1:1 plus peptide with RRRRRRRRRRRR (SEQ ID NO: 109) at n terminus; EF1Alpha eGFP plasmid; 0.02 mL complex; 42 hours
Method in brief: (§1)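 Cells at 60-70% confluence got DOTMA/DOPE (1:1) mixed with peptides bearing an N-terminal R12 DNA-binding tag, complexed 10 min with EF1α-eGFP plasmid (5 μg/mL in OptiMEM); 0.01 or 0.02 mL complex per well. After 42 h at 37 °C, GFP read by fluorescence plate reader and % transfected cells by microscopy, relative to lipid without peptide.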

HuVec Cells = experiment: Transfection of HuVec cells with DOTMA/DOPE/peptide and eGFP plasmid, fluorescent plate reader; assay type: cell-based; conditions: DOTMA/DOPE 1:1 plus peptide with RRRRRRRRRRRR (SEQ ID NO: 109) at n terminus; EF1Alpha eGFP plasmid; 0.01 mL complex; 42 hours
Method in brief: as §1

HeLa Cells [1] = experiment: Transfection of HeLa cells with DOTMA/SEQ ID NO: 72/peptide compared with Lipofectamine 2000; assay type: cell-based; conditions: fusogenic peptide 0.1 mg/mL
Method in brief: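 HeLa cells at 60–70% confluence received 0.01 mL of complexes of EF1Alpha eGFP plasmid (5 μg/mL in OptiMEM) with DOTMA/DOPE (1:1) plus R12-linked peptide, with fusogenic peptide at 0.1 mg/mL final. GFP read by fluorescence plate reader and microscopy (% cells transfected) after 42 h at 37 °C.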

HeLa Cells [2] = experiment: Transfection of HeLa cells with DOTMA/DOPE/peptide and eGFP plasmid, fluorescent plate reader; assay type: cell-based; conditions: DOTMA/DOPE 1:1 plus peptide with RRRRRRRRRRRR (SEQ ID NO: 109) at n terminus; EF1Alpha eGFP plasmid; 0.01 mL complex; 42 hours
Method in brief: as §1

Jurkat Cells = experiment: Transfection of Jurkat cells with DOTMA/DOPE/peptide and eGFP plasmid, fluorescent plate reader; assay type: cell-based; conditions: DOTMA/DOPE 1:1 plus peptide with RRRRRRRRRRRR (SEQ ID NO: 109) at n terminus; EF1Alpha eGFP plasmid; 0.02 mL complex; 42 hours
Method in brief: as §1

some examined cell types = experiment: Transfection expression and % cells transfected over the no peptide control; assay type: cell-based; conditions: on some examined cell types
Method in brief: as §1

Human Fibroblast Cells = experiment: Transfection of human fibroblast cells with DOTMA/DOPE/peptide and eGFP plasmid, fluorescent plate reader; assay type: cell-based; conditions: DOTMA/DOPE 1:1 plus peptide with RRRRRRRRRRRR (SEQ ID NO: 109) at n terminus; EF1Alpha eGFP plasmid; 0.01 mL complex; 42 hours
Method in brief: as §1

[3] = 0.1 μL of DOTMA/SEQ ID NO: 72/Peptide in well of a 96 well plate
[4] = 0.2 μL of DOTMA/SEQ ID NO: 72/Peptide in well of a 96 well plate
[5] = 0.3 μL of DOTMA/SEQ ID NO: 72/Peptide in well of a 96 well plate
[6] = 0.4 μL of DOTMA/SEQ ID NO: 72/Peptide in well of a 96 well plate

Substance | RF (Relative Fluorescence) of Transfection of NL-1 iPS Cells (NL-1 iPS Cells) | RF (Relative Fluorescence) of Transfection of C2C12 Cells (C2C12 Cells) | RF (Relative Fluorescence) of Transfection of HuVec Cells (HuVec Cells) | RF (Relative Fluorescence), DOTMA/SEQ ID NO: 72/Peptide, HeLa Cells (HeLa Cells [1]; [3]) | RF (Relative Fluorescence), DOTMA/SEQ ID NO: 72/Peptide, HeLa Cells (HeLa Cells [1]; [4]) | RF (Relative Fluorescence), DOTMA/SEQ ID NO: 72/Peptide, HeLa Cells (HeLa Cells [1]; [5]) | RF (Relative Fluorescence), DOTMA/SEQ ID NO: 72/Peptide, HeLa Cells (HeLa Cells [1]; [6]) | RF (Relative Fluorescence) of Transfection of HeLa Cells (HeLa Cells [2]) | RF (Relative Fluorescence) of Transfection of Jurkat Cells (Jurkat Cells) | transfection expression and the % cells transfected over the no peptide control (some examined cell types) | RF (Relative Fluorescence) of Transfection of Human Fibroblast Cells (Human Fibroblast Cells)
328 (NWRHISYITRFG; Peptidic transfection agent) [compound 328] | 8611 | 5507 | 3614 | 11037 | 12229 | 10801 | 10951 | 32528 | 4770 | increased | 5641
503 (TAGSCLRKFSTMRRRRRRRRRRRR; Peptidic transfection agent) [compound 503] | 19014 | 3973 | 12123 | 12827 | 20006 | 17101 | 16206 | 25368 | 9411 | increased | 13085
375 (LAGSCLPVFSTL; Peptidic transfection agent) [compound 375] | 5196 | 5633 | 5542 | 22457 | 30891 | 34887 | 29024 | 41076 | 4272 | increased | 7305
355 (FRHRNRKGY; Peptidic transfection agent) [compound 355] | 7910 | 1900 | 14810 | 18362 | 27990 | 22367 | 18289 | 32628 | 8132 | increased | 6821
218 (SPPRRARVT; Peptidic transfection agent) [compound 218] | 17049 | 3706 | 14827 | 12686 | 13103 | 10151 | 10081 | 11179 | 21451 | increased | 11230
360 (GDLGRPGRKGRPGPP; Peptidic transfection agent) [compound 360] | 27572 | 2090 | 24042 | 9946 | 11168 | 10381 | 8995 | 8516 | 16607 | increased | 5347
336 (GEFYFDLRLKGDK; Peptidic transfection agent) [compound 336] | 14875 | 9647 | 5366 | 14442 | 16702 | 13434 | 11334 | 25262 | 4813 | increased | 10449
452 (CNYYSNSYSFWLASLNPER; Peptidic transfection agent) [compound 452] | 10349 | 21798 | 1841 | 6276 | 12671 | 12047 | 10918 | 13888 | 2554 | increased | 2779
350 (SIGFRGDGQTC; Peptidic transfection agent) [compound 350] | 19132 | 2631 | 13163 | 24092 | 23238 | 19802 | 22255 | 13313 | 9184 | increased | 7105
342 (TAGSCLRKFSTM; Peptidic transfection agent) [compound 342] | 11493 | 9496 | 12804 | 41299 | 36040 | 28841 | 18351 | 33666 | 12825 | increased | 9525
